Target: T1, 11-beta-hydroxysteroid dehydrogenase 1 (Mus musculus, UniProt P50172)
Experiment: Inhibition of mouse 11betaHSD1 in 3T3L1 cells assessed as conversion of [1,2-(N)3H]-cortisone to cortisol after 1 hr by liquid scintillation counter
Format: cell-based, 3T3-L1
Conditions: not given

T1 sequence (P50172 whole entry): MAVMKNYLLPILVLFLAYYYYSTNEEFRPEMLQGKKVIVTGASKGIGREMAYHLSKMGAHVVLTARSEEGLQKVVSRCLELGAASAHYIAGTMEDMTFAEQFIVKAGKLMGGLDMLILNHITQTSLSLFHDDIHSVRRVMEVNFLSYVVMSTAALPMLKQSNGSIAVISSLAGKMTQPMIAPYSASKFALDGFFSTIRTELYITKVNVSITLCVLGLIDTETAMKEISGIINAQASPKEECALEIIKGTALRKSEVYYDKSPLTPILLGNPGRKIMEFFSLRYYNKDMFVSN

SMILES	IC50 [nM]
C[C@]1(C(=O)N[C@H]2C3CC4CC2C[C@](O)(C4)C3)CCCN1S(=O)(=O)c1cccc2cccnc12	11
Cc1c(Cl)cccc1S(=O)(=O)N1CCC[C@]1(C)C(=O)N[C@H]1C2CC3CC1C[C@](O)(C3)C2	121

Species on record: Mus musculus
Experiment: Clearance in BALB/c mouse
Format: ADME, organism-based
Conditions: in vivo

SMILES	clearance [mL/min/kg]
C[C@]1(C(=O)N[C@H]2C3CC4CC2C[C@](O)(C4)C3)CCCN1S(=O)(=O)c1cccc2cccnc12	60
Cc1c(Cl)cccc1S(=O)(=O)N1CCC[C@]1(C)C(=O)N[C@H]1C2CC3CC1C[C@](O)(C3)C2	90

System: Mus musculus
Experiment: Inhibition of 11betaHSD1 in BALB/c mouse using prednisone as substrate assessed as reduction of prednisolone production at 30 mg/kg, ip administered 1 hr prior to substrate addition measured after 2 mins post substrate addition by LC/MS/MS analysis
Format: functional
Conditions: route intraperitoneal

SMILES	inhibition in vivo at 30 mg/kg [%]
C[C@]1(C(=O)N[C@H]2C3CC4CC2C[C@](O)(C4)C3)CCCN1S(=O)(=O)c1cccc2cccnc12	89

System: Mus musculus
Experiment: Inhibition of 11betaHSD1 in BALB/c mouse using prednisone as substrate assessed as reduction of prednisolone production at 10 mg/kg, ip administered 1 hr prior to substrate addition measured after 2 mins post substrate addition by LC/MS/MS analysis
Format: functional
Conditions: route intraperitoneal

SMILES	inhibition in vivo at 10 mg/kg [%]
C[C@]1(C(=O)N[C@H]2C3CC4CC2C[C@](O)(C4)C3)CCCN1S(=O)(=O)c1cccc2cccnc12	71

System: not listed separately
Experiment: AUC (0 to t) in BALB/c mouse at 5 mg/kg, ip
Format: ADME, organism-based
Parameters: dose 5 mg/kg, route intraperitoneal
Conditions: plasma

SMILES	AUC(0-t) [ng·h/mL]
C[C@]1(C(=O)N[C@H]2C3CC4CC2C[C@](O)(C4)C3)CCCN1S(=O)(=O)c1cccc2cccnc12	939
Cc1c(Cl)cccc1S(=O)(=O)N1CCC[C@]1(C)C(=O)N[C@H]1C2CC3CC1C[C@](O)(C3)C2	597

System: not listed separately
Experiment: Bioavailability in BALB/c mouse at 5 mg/kg, ip
Format: ADME, organism-based
Conditions: in vivo

SMILES	bioavailability [%]
C[C@]1(C(=O)N[C@H]2C3CC4CC2C[C@](O)(C4)C3)CCCN1S(=O)(=O)c1cccc2cccnc12	33
Cc1c(Cl)cccc1S(=O)(=O)N1CCC[C@]1(C)C(=O)N[C@H]1C2CC3CC1C[C@](O)(C3)C2	63

System: not listed separately
Experiment: Oral bioavailability in BALB/c mouse at 5 mg/kg
Format: ADME, organism-based
Conditions: in vivo

SMILES	bioavailability [%]
C[C@]1(C(=O)N[C@H]2C3CC4CC2C[C@](O)(C4)C3)CCCN1S(=O)(=O)c1cccc2cccnc12	3
Cc1c(Cl)cccc1S(=O)(=O)N1CCC[C@]1(C)C(=O)N[C@H]1C2CC3CC1C[C@](O)(C3)C2	9.1

System: Mus musculus
Experiment: Inhibition of 11betaHSD1 in BALB/c mouse using prednisone as substrate assessed as reduction of prednisolone production at 3 mg/kg, ip administered 1 hr prior to substrate addition measured after 2 mins post substrate addition by LC/MS/MS analysis
Format: functional
Conditions: route intraperitoneal

SMILES	inhibition in vivo at 3 mg/kg [%]
C[C@]1(C(=O)N[C@H]2C3CC4CC2C[C@](O)(C4)C3)CCCN1S(=O)(=O)c1cccc2cccnc12	34

System: Mus musculus
Experiment: Inhibition of 11betaHSD1 in ip dosed BALB/c mouse using prednisone as substrate assessed as reduction of prednisolone production administered 1 hr prior to substrate addition measured after 2 mins post substrate addition by LC/MS/MS analysis
Format: functional, organism-based
Conditions: not given

SMILES	inhibition
C[C@]1(C(=O)N[C@H]2C3CC4CC2C[C@](O)(C4)C3)CCCN1S(=O)(=O)c1cccc2cccnc12	Dose-dependent effect

System: not listed separately
Experiment: Half life in BALB/c mouse at 1 mg/kg, iv
Format: ADME, organism-based
Parameters: dose 1 mg/kg, route intravenous
Conditions: in vivo

SMILES	half-life [min]
C[C@]1(C(=O)N[C@H]2C3CC4CC2C[C@](O)(C4)C3)CCCN1S(=O)(=O)c1cccc2cccnc12	14
Cc1c(Cl)cccc1S(=O)(=O)N1CCC[C@]1(C)C(=O)N[C@H]1C2CC3CC1C[C@](O)(C3)C2	14

System: not listed separately
Experiment: Volume of distribution at steady state in BALB/c mouse
Format: ADME, organism-based
Conditions: in vivo, read-out: Vdss

SMILES	Vd [L/kg]
C[C@]1(C(=O)N[C@H]2C3CC4CC2C[C@](O)(C4)C3)CCCN1S(=O)(=O)c1cccc2cccnc12	0.63
Cc1c(Cl)cccc1S(=O)(=O)N1CCC[C@]1(C)C(=O)N[C@H]1C2CC3CC1C[C@](O)(C3)C2	0.51

Target: T2, 11-beta-hydroxysteroid dehydrogenase type 2 (Homo sapiens, UniProt P80365)
T2 sequence (P80365 whole entry): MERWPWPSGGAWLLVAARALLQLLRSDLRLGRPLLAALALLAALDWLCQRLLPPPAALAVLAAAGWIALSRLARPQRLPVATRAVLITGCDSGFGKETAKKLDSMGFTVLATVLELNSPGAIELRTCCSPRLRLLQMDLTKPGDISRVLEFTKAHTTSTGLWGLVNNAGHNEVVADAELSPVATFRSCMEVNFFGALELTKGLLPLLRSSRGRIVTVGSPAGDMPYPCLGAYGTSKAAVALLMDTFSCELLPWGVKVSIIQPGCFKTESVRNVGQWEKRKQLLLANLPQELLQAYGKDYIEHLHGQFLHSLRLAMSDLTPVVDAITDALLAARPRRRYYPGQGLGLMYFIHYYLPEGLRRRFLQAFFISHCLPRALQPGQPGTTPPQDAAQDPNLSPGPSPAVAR
Experiment: Inhibition of human 11betaHSD2
Conditions: not given

SMILES	IC50 [nM]
C[C@]1(C(=O)N[C@H]2C3CC4CC2C[C@](O)(C4)C3)CCCN1S(=O)(=O)c1cccc2cccnc12	> 10000
Cc1c(Cl)cccc1S(=O)(=O)N1CCC[C@]1(C)C(=O)N[C@H]1C2CC3CC1C[C@](O)(C3)C2	2200

System: not listed separately
Experiment: Intrinsic clearance in human liver microsomes assessed as per mg of protein
Format: ADME, Microsome
Conditions: read-out: CLH

SMILES	microsomal CLint [µL/min/mg]
Cc1c(Cl)cccc1S(=O)(=O)N1CCC[C@]1(C)C(=O)NC1CCCCC1	140
C[C@]1(C(=O)N[C@H]2C3CC4CC2C[C@](O)(C4)C3)CCCN1S(=O)(=O)c1ccc(-c2ccccc2)cc1	87
COc1ccc(S(=O)(=O)N2CCC[C@]2(C)C(=O)N[C@H]2C3CC4CC2C[C@](O)(C4)C3)cc1OC	132
C[C@]1(C(=O)N[C@H]2C3CC4CC2C[C@](O)(C4)C3)CCCN1S(=O)(=O)c1ccc(Br)s1	57
C[C@]1(C(=O)N[C@H]2C3CC4CC2C[C@](O)(C4)C3)CCCN1S(=O)(=O)c1cccnc1	55
C[C@]1(C(=O)N[C@H]2C3CC4CC2C[C@](O)(C4)C3)CCCN1S(=O)(=O)c1cccc2cccnc12	51
C[C@]1(C(=O)N[C@H]2C3CC4CC2C[C@](O)(C4)C3)CCCN1S(=O)(=O)c1cccs1	15
Cc1c(Cl)cccc1S(=O)(=O)N1CCC[C@@H]1C(=O)NC1CCCCC1	430
CN(C)c1cccc2c(S(=O)(=O)N3CCC[C@]3(C)C(=O)N[C@H]3C4CC5CC3C[C@](O)(C5)C4)cccc12	148
Cc1c(Cl)cccc1S(=O)(=O)N1CCC[C@]1(C)C(=O)NC1C2CC3CC(C2)CC1C3 (stereo partly specified)	499
Cc1c(Cl)cccc1S(=O)(=O)N1CCC[C@]1(C)C(=O)N[C@H]1C2CC3CC1C[C@](O)(C3)C2	106
C[C@]1(C(=O)N[C@H]2C3CC4CC2C[C@](O)(C4)C3)CCCN1S(=O)(=O)c1ccc(C#N)cc1Cl	134

Target: 11-beta-hydroxysteroid dehydrogenase 1 (Mus musculus) (UniProt P50172)
Sequence (P50172 whole entry, looked up): as the sequence (P50172 whole entry) above
Experiment: Inhibition of mouse 11betaHSD1 at 100 nM by scintillation proximity assay
Conditions: not given

SMILES	inhibition [%]
Cc1c(Cl)cccc1S(=O)(=O)N1CCC[C@]1(C)C(=O)NC1CCCCC1	9.2
C[C@]1(C(=O)N[C@H]2C3CC4CC2C[C@](O)(C4)C3)CCCN1S(=O)(=O)c1ccc(-c2ccccc2)cc1	37
COc1ccc(S(=O)(=O)N2CCC[C@]2(C)C(=O)N[C@H]2C3CC4CC2C[C@](O)(C4)C3)cc1OC	3
C[C@]1(C(=O)N[C@H]2C3CC4CC2C[C@](O)(C4)C3)CCCN1S(=O)(=O)c1cccnc1	17
CN(C)c1cccc2c(S(=O)(=O)N3CCC[C@]3(C)C(=O)N[C@H]3C4CC5CC3C[C@](O)(C5)C4)cccc12	31

Target: T1, 11-beta-hydroxysteroid dehydrogenase 1
Experiment: Inhibition of mouse 11betaHSD1 by scintillation proximity assay
Conditions: not given

SMILES	IC50 [nM]
C[C@]1(C(=O)N[C@H]2C3CC4CC2C[C@](O)(C4)C3)CCCN1S(=O)(=O)c1ccc(Br)s1	97
C[C@]1(C(=O)N[C@H]2C3CC4CC2C[C@](O)(C4)C3)CCCN1S(=O)(=O)c1cccc2cccnc12	11
C[C@]1(C(=O)N[C@H]2C3CC4CC2C[C@](O)(C4)C3)CCCN1S(=O)(=O)c1cccs1	112
Cc1c(Cl)cccc1S(=O)(=O)N1CCC[C@]1(C)C(=O)NC1C2CC3CC(C2)CC1C3 (stereo partly specified)	64
Cc1c(Cl)cccc1S(=O)(=O)N1CCC[C@]1(C)C(=O)N[C@H]1C2CC3CC1C[C@](O)(C3)C2	1.3
C[C@]1(C(=O)N[C@H]2C3CC4CC2C[C@](O)(C4)C3)CCCN1S(=O)(=O)c1ccc(C#N)cc1Cl	146

Target: 11-beta-hydroxysteroid dehydrogenase 1 (Homo sapiens, UniProt P28845)
Sequence (P28845 whole entry): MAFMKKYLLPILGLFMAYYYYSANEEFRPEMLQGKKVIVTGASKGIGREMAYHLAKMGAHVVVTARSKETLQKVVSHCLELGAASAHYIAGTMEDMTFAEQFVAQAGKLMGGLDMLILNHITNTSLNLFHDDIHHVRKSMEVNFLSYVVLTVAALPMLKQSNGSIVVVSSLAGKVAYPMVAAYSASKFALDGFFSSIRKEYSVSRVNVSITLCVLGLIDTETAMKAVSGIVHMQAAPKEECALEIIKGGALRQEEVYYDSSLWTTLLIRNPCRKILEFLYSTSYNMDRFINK
Experiment: Inhibition of human 11betaHSD1 by scintillation proximity assay
Conditions: not given

SMILES	IC50 [nM]
C[C@]1(C(=O)N[C@H]2C3CC4CC2C[C@](O)(C4)C3)CCCN1S(=O)(=O)c1cccc2cccnc12	7.7
Cc1c(Cl)cccc1S(=O)(=O)N1CCC[C@]1(C)C(=O)N[C@H]1C2CC3CC1C[C@](O)(C3)C2	0.1

System: Mus musculus
Experiment: Inhibition of 11betaHSD1 in BALB/c mouse using prednisone as substrate assessed as remaining prednisolone level at 3 mg/kg, ip administered 1 hr prior to substrate addition measured after 2 mins post substrate addition by LC/MS/MS analysis
Format: functional
Conditions: route intraperitoneal

SMILES	Activity [%]
C[C@]1(C(=O)N[C@H]2C3CC4CC2C[C@](O)(C4)C3)CCCN1S(=O)(=O)c1cccc2cccnc12	66

System: Mus musculus
Experiment: Inhibition of 11betaHSD1 in BALB/c mouse using prednisone as substrate assessed as remaining prednisolone level at 30 mg/kg, ip administered 1 hr prior to substrate addition measured after 2 mins post substrate addition by LC/MS/MS analysis
Format: functional
Conditions: route intraperitoneal

SMILES	Activity [%]
C[C@]1(C(=O)N[C@H]2C3CC4CC2C[C@](O)(C4)C3)CCCN1S(=O)(=O)c1cccc2cccnc12	11

System: not listed separately
Experiment: Plasma concentration in BALB/c mouse at 3 mg/kg, ip administered 1 hr prior to prednisone addition measured after 2 mins post prednisone addition by LC/MS/MS analysis
Format: ADME, organism-based
Parameters: dose 3 mg/kg, route intraperitoneal
Conditions: not given

SMILES	concentration at 2 min [ng/mL]
C[C@]1(C(=O)N[C@H]2C3CC4CC2C[C@](O)(C4)C3)CCCN1S(=O)(=O)c1cccc2cccnc12	28

System: not listed separately
Experiment: Plasma concentration in BALB/c mouse at 10 mg/kg, ip administered 1 hr prior to prednisone addition measured after 2 mins post prednisone addition by LC/MS/MS analysis
Format: ADME, organism-based
Parameters: dose 10 mg/kg, route intraperitoneal
Conditions: not given

SMILES	concentration at 2 min [ng/mL]
C[C@]1(C(=O)N[C@H]2C3CC4CC2C[C@](O)(C4)C3)CCCN1S(=O)(=O)c1cccc2cccnc12	80

System: not listed separately
Experiment: Plasma concentration in BALB/c mouse at 30 mg/kg, ip administered 1 hr prior to prednisone addition measured after 2 mins post prednisone addition by LC/MS/MS analysis
Format: ADME, organism-based
Parameters: dose 30 mg/kg, route intraperitoneal
Conditions: not given

SMILES	concentration at 62 min [ng/mL]
C[C@]1(C(=O)N[C@H]2C3CC4CC2C[C@](O)(C4)C3)CCCN1S(=O)(=O)c1cccc2cccnc12	94

System: Mus musculus
Experiment: Inhibition of 11betaHSD1 in BALB/c mouse using prednisone as substrate assessed as remaining prednisolone level at 10 mg/kg, ip administered 1 hr prior to substrate addition measured after 2 mins post substrate addition by LC/MS/MS analysis
Format: functional
Conditions: route intraperitoneal

SMILES	Activity [%]
C[C@]1(C(=O)N[C@H]2C3CC4CC2C[C@](O)(C4)C3)CCCN1S(=O)(=O)c1cccc2cccnc12	29

From ChEMBL document CHEMBL2150908, “Discovery of 2-Alkyl-1-arylsulfonylprolinamides as 11β-Hydroxysteroid Dehydrogenase Type 1 Inhibitors” (ACS Med Chem Lett, 2012)
